What was measured:
[1] = tested on: human lung small cell carcinoma, Lu-65; test: Tumor xenograft, SQAP plus X-irradiation; type: in vivo, KSN nude mice; conditions: 2 mg/kg i.v. five injections plus X-irradiation 8 Gy/fraction x 2; Supplementary Fig. S1, also ref 12
Protocol: Cell lines and animal studies: A human lung small cell carcinoma, Lu-65, was obtained from the Cell resource Center for Biomedical Research (Sendai, Japan) and maintained in RPMI-1640 medium supplemented with 10% fetal bovine serum, 100 units/ml penicillin, 100 μg/ml streptomycin, and 1 mM sodium pyruvate at 37 °C in 5% CO2 humidified atmosphere. Viable tumor cell (1 × 106) were implanted subcutanceously into the right hind legs of male KSN nude mice (6–8 weeks old). After the tumor volume reached 50 to 100 mm3, the tumor were treated and the tumor growth was monitored by palpation. The size of the palpable tumors was measured using calipers every two days. The tumor volume (V, […]) was estimated based on the formula as follows; (minor axis)^2 × (major axis) × 0.5.
Treatments: Synthesized SQAP was prepared one day before experimentation, and dissolved in saline at the appropriate concentrations. To analyze the tumor radioresponse, 2 mg/kg SQAP (dissolved in 100 μl of saline) was administered intravenously to the ‘SQAP’ group and ‘Combination’ group (adiministered five times daily from days zero to four). The same amount of saline was injected in the ‘control’ group and ‘X-irradiation’ group. […]

[2] = tested on: VEGF mRNA expression in HUVEC cells; test: VEGF mRNA expression, quantitative real-time RT-PCR, HUVEC; type: cell-based, human; conditions: 6 h SQAP treatment
Protocol: Figure 5 Effect of SQAP on FAK phosphorylation. The level of FAK phosphorylated at Y397 and Y925 was evaluated by Western blotting. (A) HUVEC cells were serum-depleted for 20 h before treatment with SQAP or vehicle for 30 min followed by treatment with or without VEGF (50 ng/mL) for 30 min. (B) HUVEC cells were cultured as stated in section A and then treated with SQAP, SQMG or SQP. (C) A549 cells were serum-deprived for 48 h before pretreatment with SQAP or vehicle followed by treatment with or without fibronectin (10 μg/mL) for 30 min. (D) A549 cells were cultured as stated in section C and then treated with SQAP, SQMG or SQP. (E–F) HUVEC and A549 cells were treated with SQAP for 6 h before adding an RNA stabilization reagent and prepared for Quantitative real-time RT-PCR.
Total RNA was prepared using an RNeasy Mini Kit (QIAGEN Inc., Hilden, Germany) according to the manufacturer’s instructions and then reverse-transcribed to cDNA with Transcriptor First Strand cDNA Synthesis Kit (Roche Applied Science, Mnnheim, Germany). Measurement of gene expression by quantitative analysis was performed using the LightCycler system (Roche Applied Science). Quantitative real-time RT-PCR analysis of β-actin, TSP-1 and VEGF-A expression were performed using the LightCycler FastStart DNA MasterPLUS SYBR Green I system (Roche Applied Science). […]

Q: With `CCCCCCCCCCCCCCCCCC(=O)OCCCO[C@H]1O[C@H](CS(=O)(=O)O)[C@@H](O)[C@H](O)[C@H]1O` [SQAP, sulfoquynovosylacylpropanediol] as the molecule, how does the “tumor arrest in combination with irradiation” value [1] read?
A: The value was “synergistically enhanced tumor arrest”.

Q: And the “VEGF production level (mRNA, RT-PCR)” value [2]?
A: Its value is “reduced”.

Source: article PMC4601023, “Novel anticancer agent, SQAP, binds to focal adhesion kinase and modulates its activity” (Scientific Reports, 2015)
